Laboratory results: patent publication US20050197350A1, “Novel quinoline, tetrahydroquinazoline, and pyrimidine derivatives and methods of treatment related to the use thereof” (TAISHO PHARMACEUTICAL CO., LTD., priority 2003, published 2005)

System: MCH receptors
Assay: MCH receptor activity class (method not given)
Conditions: class by percent of control at 10^−7 M or IC50

| Structure (SMILES) | class |
| --- | --- |
| CCOc1ncccc1C(=O)N[C@H]1CC[C@@H](Nc2nc(C)c(C)c(N(C)C)n2)CC1 [compound 2834] | 3 (Class 3 The value of percent of control at 10^−7 M was more than 60% or the value of IC50 was more than 200 nM.) |
| Cc1nc(N[C@H]2CC[C@@H](NC(=O)c3ccccn3)CC2)nc(N(C)C)c1C [compound 2835] | 3 (Class 3 The value of percent of control at 10^−7 M was more than 60% or the value of IC50 was more than 200 nM.) |
| Cc1nc(N[C@H]2CC[C@@H](NC(=O)c3cccc(C#N)c3)CC2)nc(N(C)C)c1C [compound 2836, 3-cyano-N-(cis-4-{[4-(dimethylamino)-5,6-dimethylpyrimidin-2-yl]amino}cyclohexyl)benzamide] | 1 (Class 1: The value of percent of control at 10^−7 M was less than 40% or the value of IC50 was less than 50 nM.) |
| Cc1cccc(C(=O)N[C@H]2CC[C@@H](Nc3nc(C)c(C)c(N(C)C)n3)CC2)c1 [compound 2837, N-(cis-4-{[4-(dimethylamino)-5,6-dimethylpyrimidin-2-yl]amino}cyclohexyl)-3-methylbenzamide] | 1 (Class 1: The value of percent of control at 10^−7 M was less than 40% or the value of IC50 was less than 50 nM.) |
| Cc1nc(N[C@H]2CC[C@@H](NC(=O)c3cccc(Cl)c3)CC2)nc(N(C)C)c1C [compound 2838, 3-chloro-N-(cis-4-{[4-(dimethylamino)-5,6-dimethylpyrimidin-2-yl]amino}cyclohexyl)benzamide] | 1 (Class 1: The value of percent of control at 10^−7 M was less than 40% or the value of IC50 was less than 50 nM.) |
| Cc1nc(N[C@H]2CC[C@@H](NC(=O)c3cccc(Br)c3)CC2)nc(N(C)C)c1C [compound 2839, 3-bromo-N-(cis-4-{[4-(dimethylamino)-5,6-dimethylpyrimidin-2-yl]amino}cyclohexyl)benzamide] | 1 (Class 1: The value of percent of control at 10^−7 M was less than 40% or the value of IC50 was less than 50 nM.) |
| COc1cc(OC)cc(C(=O)N[C@H]2CC[C@@H](Nc3nc(C)c(C)c(N(C)C)n3)CC2)c1 [compound 2840, N-(cis-4-{[4-(dimethylamino)-5,6-dimethylpyrimidin-2-yl]amino}cyclohexyl)-3,5-dimethoxybenzamide] | 1 (Class 1: The value of percent of control at 10^−7 M was less than 40% or the value of IC50 was less than 50 nM.) |
| Cc1nc(N[C@H]2CC[C@@H](NC(=O)c3cc(C(F)(F)F)cc(C(F)(F)F)c3)CC2)nc(N(C)C)c1C [compound 2841, N-(cis-4-{[4-(dimethylamino)-5,6-dimethylpyrimidin-2-yl]amino}cyclohexyl)-3,5-bis(trifluoromethyl)benzamide] | 1 (Class 1: The value of percent of control at 10^−7 M was less than 40% or the value of IC50 was less than 50 nM.) |
| Cc1nc(N[C@H]2CC[C@@H](NC(=O)c3ccc(Cl)c(Cl)c3)CC2)nc(N(C)C)c1C [compound 2842, 3,4-dichloro-N-(cis-4-{[4-(dimethylamino)-5,6-dimethylpyrimidin-2-yl]amino}cyclohexyl)benzamide] | 1 (Class 1: The value of percent of control at 10^−7 M was less than 40% or the value of IC50 was less than 50 nM.) |
| Cc1nc(N[C@H]2CC[C@@H](NC(=O)c3ccc(OC(F)(F)F)cc3)CC2)nc(N(C)C)c1C [compound 2843, N-(cis-4-{[4-(dimethylamino)-5,6-dimethylpyrimidin-2-yl]amino}cyclohexyl)-4-(trifluoromethoxy)benzamide] | 2 (Class 2: The value of percent of control at 10^−7 M was from 40% to 60% or the value of IC′50 was from 50 nM to 200 nM.) |
| Cc1nc(N[C@H]2CC[C@@H](NC(=O)c3ccc(C#N)cc3)CC2)nc(N(C)C)c1C [compound 2844, 4-cyano-N-(cis-4-{[4-(dimethylamino)-5,6-dimethylpyrimidin-2-yl]amino}cyclohexyl)benzamide] | 1 (Class 1: The value of percent of control at 10^−7 M was less than 40% or the value of IC50 was less than 50 nM.) |
| Cc1ccc(C(=O)N[C@H]2CC[C@@H](Nc3nc(C)c(C)c(N(C)C)n3)CC2)cc1 [compound 2845, N-(cis-4-{[4-(dimethylamino)-5,6-dimethylpyrimidin-2-yl]amino}cyclohexyl)-4-methylbenzamide] | 1 (Class 1: The value of percent of control at 10^−7 M was less than 40% or the value of IC50 was less than 50 nM.) |
| Cc1nc(N[C@H]2CC[C@@H](NC(=O)c3ccc(F)cc3)CC2)nc(N(C)C)c1C [compound 2846, N-(cis-4-{[4-(dimethylamino)-5,6-dimethylpyrimidin-2-yl]amino}cyclohexyl)-4-fluorobenzamide] | 1 (Class 1: The value of percent of control at 10^−7 M was less than 40% or the value of IC50 was less than 50 nM.) |
| Cc1nc(N[C@H]2CC[C@@H](NC(=O)c3ccc(Cl)cc3)CC2)nc(N(C)C)c1C [compound 2847, 4-chloro-N-(cis-4-{[4-(dimethylamino)-5,6-dimethylpyrimidin-2-yl]amino}cyclohexyl)benzamide] | 1 (Class 1: The value of percent of control at 10^−7 M was less than 40% or the value of IC50 was less than 50 nM.) |
| COc1ccccc1C(=O)N[C@H]1CC[C@@H](Nc2nc(C)c(C)c(N(C)C)n2)CC1 [compound 2848, N-(cis-4-{[4-(dimethylamino)-5,6-dimethylpyrimidin-2-yl]amino}cyclohexyl)-2-methoxybenzamide] | 2 (Class 2: The value of percent of control at 10^−7 M was from 40% to 60% or the value of IC′50 was from 50 nM to 200 nM.) |
| Cc1nc(N[C@H]2CC[C@@H](NC(=O)c3ccc(Br)cc3)CC2)nc(N(C)C)c1C [compound 2849, 4-bromo-N-(cis-4-{[4-(dimethylamino)-5,6-dimethylpyrimidin-2-yl]amino}cyclohexyl)benzamide] | 1 (Class 1: The value of percent of control at 10^−7 M was less than 40% or the value of IC50 was less than 50 nM.) |
| Cc1nc(N[C@H]2CC[C@@H](NC(=O)c3ccc(C(F)(F)F)cc3)CC2)nc(N(C)C)c1C [compound 2850, N-(cis-4-{[4-(dimethylamino)-5,6-dimethylpyrimidin-2-yl]amino}cyclohexyl)-4-(trifluoromethyl)benzamide] | 1 (Class 1: The value of percent of control at 10^−7 M was less than 40% or the value of IC50 was less than 50 nM.) |
| CCOc1ccc(C(=O)N[C@H]2CC[C@@H](Nc3nc(C)c(C)c(N(C)C)n3)CC2)cc1 [compound 2851] | 3 (Class 3 The value of percent of control at 10^−7 M was more than 60% or the value of IC50 was more than 200 nM.) |
| Cc1cc(C(=O)N[C@H]2CC[C@@H](Nc3nc(C)c(C)c(N(C)C)n3)CC2)ccc1Br [compound 2852, 4-bromo-N-(cis-4-{[4-(dimethylamino)-5,6-dimethylpyrimidin-2-yl]amino}cyclohexyl)-3-methylbenzamide] | 1 (Class 1: The value of percent of control at 10^−7 M was less than 40% or the value of IC50 was less than 50 nM.) |
| Cc1ccc(C(=O)N[C@H]2CC[C@@H](Nc3nc(C)c(C)c(N(C)C)n3)CC2)cc1F [compound 2853, N-(cis-4-{[4-(dimethylamino)-5,6-dimethylpyrimidin-2-yl]amino}cyclohexyl)-3-fluoro-4-methylbenzamide] | 1 (Class 1: The value of percent of control at 10^−7 M was less than 40% or the value of IC50 was less than 50 nM.) |
